Literature values as cited in patent publication EP4541846A1, “ENCAPSULANT FILM COMPOSITION, AND ENCAPSULANT FILM COMPRISING SAME” (LG Chem, Ltd., priority 2022, dated 2024).
Counter-ions that a name gives are not always drawn.

Settings: marked by acute toxicity, oral/acute toxicity, percutaneous/skin corrosivity/skin irritation/severe eye damage/eye irritation/dermal hypersensitivity, or the like

Structure (SMILES) | harmfulness/dangerousness classification in SDS
C=CCOC(=O)OC(=O)OCC=C [diallyl decarbonate] | harmful
C=CCOC(=O)/C=C/C(=O)OCC=C [diallyl fumarate] | harmful
C=CCOC(=O)/C=C\C(=O)OCC=C [diallyl maleate] | harmful
